Where two headings read alike, the source gives them in different places.
Key:
[1] = target: T1, Full-length wild type HIV-1 integrase (SF1) (Human immunodeficiency virus type 1 group M subtype B, UniProt P04585); experiment: Integrase strand-transfer scintillation proximity assay; format: biochemical; details: strand transfer, 50 min at 37° C., 246 nM integrase, 50 nM host DNA; read-out: IC50
T1 construct: made in house; host or cells: E. coli BL21 (DE3)
Description: Integrase Strand-Transfer Scintillation Proximity Assay Oligonucleotides
Oligonucleotide #1-5′-(biotin)[…]-3′ (SEQ ID NO: 1) and oligonucleotide #2-5′-[…]-3′ (SEQ ID NO: 2), were synthesized by TriLink BioTechnologies, Inc. (San Diego, Calif.). The annealed product represents preprocessed viral ds-DNA derived from the LTR U5 sequence of the viral genome. A ds-DNA control to test for non-specific interactions was made using a 3′ di-deoxy derivative of oligonucleotide #1 annealed to oligonucleotide #2. The CA overhang at the 5′ end of the non-biotinylated strand of the ds-DNA was created artificially by using a complimentary DNA oligonucleotide shortened by 2 base pairs. This configuration eliminates the requisite 3′ processing step of the integrase enzyme prior to the strand-transfer mechanism. Host ds-DNA was prepared as an unlabeled and [^3H]-thymidine labeled product from annealed oligonucleotide #3-5-[…]-3′ (SEQ ID NO: 3), and oligonucleotide #4-5′-[…]-3′ (SEQ ID NO: 4), both synthesized by TriLink BioTechnologies, Inc. (San Diego, Calif.). The annealed product had overhanging 3′ ends of poly(dA). Host DNA was custom radiolabeled by PerkinElmer Life Sciences Inc. (Boston, Mass.) using an enzymatic method with a 12/1 ratio of [methyl-3H]dTTP/cold ds-DNA to yield 5′-blunt end ds-DNA with a specific activity of >900 Ci/mmol. The radiolabeled product was purified using a NENSORB cartridge and stored in stabilized aqueous solution (PerkinElmer). The final radiolabeled product had six [^3H]-thymidine nucleotides at both 5′ ends of the host ds-DNA. Reagents: Streptavidin-coated polyvinyltoluene (PVT) SPA beads were purchased from Amersham Biosciences (Piscataway, N.J.). Cesium chloride was purchased from Shelton Scientific, Inc. (Shelton, Conn.). White, polystyrene, flat-bottom, non-binding surface, 96-well plates were purchased from Corning. All other buffer components were purchased from Sigma (St. Louis, Mo.) unless otherwise indicated.
Enzyme Construction: Full-length wild type HIV-1 integrase (SF1) sequence (amino acids 1-288) was constructed in a pET24a vector (Novagen, Madison, Wis.). The construct was confirmed through DNA sequencing. Enzyme Purification: Full length wild-type HIV Integrase was expressed in E. coli BL21 (DE3) cells and induced with 1 mM isopropyl-1 thio-β-D-galactopyranoside (IPTG) when cells reached an optical density between 0.8-1.0 at 600 nm. Cells were lysed by microfluidation in 50 mM HEPES pH 7.0, 75 mM NaCl, 5 mM DTT, 1 mM 4-(2-Aminoethyl)benzenesulfonylfluoride HCl (AEBSF). Lysate was then centrifuged 20 minutes at 11 k rpm in GSA rotor in Sorvall RC-5B at 4° C. Supernant was discarded and pellet resuspended in 50 mM HEPES pH 7.0, 750 mM NaCl, 5 mM DTT, 1 mM AEBSF and homogenized in a 40 mL Dounce homogenizer for 20 minutes on ice. Homogenate was then centrifuged 20 minutes at 11 k rpm in SS34 rotor in Sorvall RC-5B at 4° C. Supernant was discarded and pellet resuspended in 50 mM HEPES pH 7.0, 750 mM NaCl, 25 mM CHAPS, 5 mM DTT, 1 mM AEBSF. Preparation was then centrifuged 20 minutes at 11 k rpm in SS34 rotor in Sorvall RC-5B at 4° C. Supernant was then diluted 1:1 with 50 mM HEPES pH 7.0, 25 mM CHAPS, 1 mM DTT, 1 mM AEBSF and loaded onto a Q-Sepharose column pre-equilibrated with 50 mM HEPES, pH 7.0, 375 mM NaCl, 25 mM CHAPS, 1 mM DTT, 1 mM AEBSF. The flow through peak was collected and NaCl diluted to 0.1 M with 50 mM HEPES pH 7.0, 25 mM CHAPS, 1 mM DTT, 0.5 mM AEBSF and loaded onto a SP-Sepharose column pre-equilibrated with 50 mM HEPES pH 7.0, 100 mM NaCl, 25 mM CHAPS, 1 mM DTT, 0.5 mM AEBSF. After washing the column with the equilibration buffer, a 100 to 400 mM NaCl gradient was run. The eluted integrase was concentrated and run on a S-300 gel diffusion column using 50 mM HEPES pH 7.0, 500 mM NaCl, 25 mM CHAPS, 1 mM DTT, 0.5 mM AEBSF. The peak from this column was concentrated to 0.76 mg/mL and stored at −70° C. and later used for strand transfer assays. […]

[2] = system: RF strain of HIV-1 in CEM-SS cells; experiment: HIV-1 cell protection assay (XTT dye reduction); format: cell-based
Experimental: HIV-1 Cell Protection Assay
The antiviral activities of potential modulator compounds (test compounds) were determined in HIV-1 cell protection assays using the RF strain of HIV-1, CEM-SS cells, and the XTT dye reduction method (Weislow, O. S. et al., J. Natl. Cancer Inst. 81: 577-586 (1989)). Subject cells were infected with HIV-1 RF virus at an moi of 0.025 to 0.819 or mock infected with medium only and added at 2×10^4 cells per well into 96 well plates containing half-log dilutions of test compounds. Six days later, 50 μl of XTT solution (1 mg/ml XTT tetrazolium and […] phenazine methosulfate) were added to the wells and the plates were reincubated for four hours. Viability, as determined by the amount of XTT formazan produced, was quantified spectrophotometrically by absorbance at 450 nm. Data from CPE assays were expressed as the percent of formazan produced in compound-treated cells compared to formazan produced in wells of uninfected, compound-free cells. […] The therapeutic index was calculated by dividing the cytotoxicity (CC50) by the antiviral activity (EC50).

[3] = Human immunodeficiency virus 1, CEM-SS, 144 h, HIV-1 RF, CEM-SS cells, XTT dye reduction, six days, read-out: EC50
[4] = Human immunodeficiency virus 1, CEM-SS, 144 h

| Compound | IC50 [1] [nM] | EC50 [2, 3] [nM] | EC50 [2, 4] [nM] | EC50 ([2]; HIV-1 RF, CEM-SS cells, XTT dye reduction, six days, read-out: EC50) [nM] |
| --- | --- | --- | --- | --- |
| O=C(NO)c1cc2c(CN3CC[C@@H]4C(=O)NC[C@@H]4C3)cn(Cc3ccc(F)cc3F)c2cn1 (racemic) [Example 16, rac 1-(2,4-difluorobenzyl)-N-hydroxy-3-{[(3aR*,7aS*)-1-oxooctahydro-5H-pyrrolo[3,4-c]pyridin-5-yl]methyl}-1H-pyrrolo[2,3-c]pyridine-5-carboxamide] | 108 | 12 | – | – |
| CONC(=O)c1cc2c(CN3CC[C@@H]4C(=O)NC[C@@H]4C3)cn(Cc3ccc(F)cc3F)c2cn1 (racemic) [Example 17, rac 1-(2,4-Difluorobenzyl)-N-methoxy-3-{[(3aR*,7aS*)-1-oxooctahydro-5H-pyrrolo[3,4-c]pyridin-5-yl]methyl}-1H-pyrrolo[2,3-c]pyridine-5-carboxamide] | 300 | 25 | – | – |
| CN(O)C(=O)c1cc2c(CN3CC[C@@H]4C(=O)NC[C@@H]4C3)cn(Cc3ccc(F)cc3F)c2cn1 (racemic) [Example 18, rac 1-(2,4-difluorobenzyl)-N-hydroxy-N-methyl-3-{[(3aR*,7aS*)-1-oxooctahydro-5H-pyrrolo[3,4-c]pyridin-5-yl]methyl}-1H-pyrrolo[2,3-c]pyridine-5-carboxamide] | 470 | 49 | – | – |
| O=C(NO)c1cc2c(CNC3CC3c3ccccc3)cn(Cc3ccc(F)cc3F)c2cn1 (racemic) [Example 75, rac-1-(2,4-Difluorobenzyl)-N-hydroxy-3-({[(1S,2R)-2-phenylcyclopropyl]amino}methyl)-1H-pyrrolo[2,3-c]pyridine-5-carboxamide] | 382 | 14 | – | – |
| CN(O)C(=O)c1cc2c(CN3CC[C@@H]4CNC(=O)[C@@H]4C3)cn(Cc3ccc(F)cc3F)c2cn1 (relative stereo) [Example 112] | 62 | 597 | – | – |
| C[C@@H](NCc1cn(Cc2ccc(F)cc2F)c2cnc(C(=O)NO)cc12)[C@@H](O)c1ccccc1 (stereo in doubt) [Example 86, 1-(2,4-Difluorobenzyl)-N-hydroxy-3-{[(2-hydroxy-1-methyl-2-phenylethyl)amino]methyl}-1H-pyrrolo[2,3-c]pyridine-5-carboxamide] | 314 | 11 | – | – |
| CCOC(=O)N1C2CC[C@@H]1CC(NCc1cn(Cc3ccc(F)cc3F)c3cnc(C(=O)NO)cc13)C2 (stereo in doubt) [Example 97, Ethyl (1R,5S)-3-[({1-(2,4-difluorobenzyl)-5-[(hydroxyamino)carbonyl]-1H-pyrrolo[2,3-c]pyridin-3-yl}methyl)amino]-8-azabicyclo[3.2.1]octane-8-carboxylate] | 311 | – | 20 | – |
| O=C(NO)c1cc2ccn(Cc3ccc(F)cc3F)c2cn1 [Example 1, 1-(2,4-Difluorobenzyl)-N-hydroxy-1H-pyrrolo[2,3-c]pyridine-5-carboxamide] | 84 | 7.95 | – | – |
| O=C(NO)c1cc2c(CN3CCOCC3)cn(Cc3ccc(F)cc3F)c2cn1 [Example 2, 1-(2,4-difluorobenzyl)-N-hydroxy-3-(morpholin-4-ylmethyl)-1H-pyrrolo[2,3-c]pyridine-5-carboxamide] | 52.3 | 68 | – | – |
| O=C(NO)c1cc2c(CNCCO)cn(Cc3ccc(F)cc3F)c2cn1 [Example 3] | 195 | – | – | 160 |
| CN(C)CCCNCc1cn(Cc2ccc(F)cc2F)c2cnc(C(=O)NO)cc12 [Example 4] | 343 | 85 | – | – |
| CN1CCN(Cc2cn(Cc3ccc(F)cc3F)c3cnc(C(=O)NO)cc23)CC1 [Example 5, 1-(2,4-Difluorobenzyl)-N-hydroxy-3-[(4-methylpiperazin-1-yl)methyl]-1H pyrrolo[2,3-c]pyridine-5-carboxamide] | 153 | 13 | – | – |
| O=C(NO)c1cc2c(CN3CCCCC3)cn(Cc3ccc(F)cc3F)c2cn1 [Example 6, 1-(2,4-difluorobenzyl)-N-hydroxy-3-(piperidin-1-ylmethyl)-1H-pyrrolo[2,3-c]pyridine-5-carboxamide] | 108 | 5.2 | – | – |
| CN(O)C(=O)c1cc2c(CN3CCOCC3)cn(Cc3ccc(F)cc3F)c2cn1 [Example 7, 1-(2,4-Difluorobenzyl)-A-hydroxy-N-methyl-3-(morpholin-4-ylmethyl)-1H-pyrrolo[2,3-c]pyridine-5-carboxamide] | 140 | 21 | – | – |
| O=C(NO)c1cc2cnn(Cc3ccc(F)cc3)c2cn1 [Example 35, 1-(4-Fluorobenzyl)-N-hydroxy-1H-pyrazolo[3,4-c]pyridine-5-carboxamide] | 446 | – | – | – |
| C=Cc1c(C(=O)NO)ncc2c1ccn2Cc1ccc(F)cc1 [Example 39, 1-(4-Fluorobenzyl)-N-hydroxy-4-vinyl-1H-pyrrolo[2,3-c]pyridine-5-carboxamide] | – | 3.05 | – | – |
| CCCN(CCO)Cc1cn(Cc2ccc(F)cc2)c2cnc(C(=O)NOCC)cc12 [Example 115, N-ethoxy-1-(4-fluorobenzyl)-3-{[(2-hydroxyethyl)(propyl)amino]methyl}-1H-pyrrolo[2,3-c]pyridine-5-carboxamide] | – | 3700 | – | – |
| CCONC(=O)c1cc2c(CN(C)CCCN(C)C)cn(Cc3ccc(F)cc3)c2cn1 [Example 116, 3-{[[3-(Dimethylamino)propyl](methyl)amino]methyl}-N-ethoxy-1-(4-fluorobenzyl)-1H-pyrrolo[2,3-c]pyridine-5-carboxamide] | – | 3900 | – | – |
| CCOCCOCc1cn(Cc2ccc(F)cc2)c2cnc(C(=O)NOC)cc12 [Example 121, 3-[(2-Ethoxyethoxy)methyl]-1-(4-fluorobenzyl)-N-methoxy-1H-pyrrolo[2,3-c]pyridine-5-carboxamide] | – | 512 | – | – |
| COCc1cn(Cc2ccc(F)cc2)c2cnc(C(=O)N(C)O)cc12 [Example 122, 1-(4-Fluorobenzyl)-AN-hydroxy-3-(methoxymethyl)-N-methyl-1H-pyrrolo[2,3-c]pyridine-5-carboxamide] | – | – | 242 | – |
